Here are results for two molecules from PMC5509440 (Bioorganic & medicinal chemistry, 2017).

Entries after “also recorded” stand apart in the source; their conditions may differ.

The target of experiment [1] is tubulin polymerization in T. brucei cells (Trypanosoma brucei rhodesiense, UniProt P04106+P04107). It is filed as cell-based. The following applies: different doses, 7 hrs, western blot with TAT-1 antibody.
Experiment [2] relates to T. b. brucei Lister 427 cells. The experiment is described as follows: T. brucei cell viability analysis. The conditions noted are these: Trypanosoma brucei, 48 h, read-out: IC50 against T. brucei cells, bloodstream form T. b. brucei Lister 427, 48 hrs, MTS. The experiment is classed as cell-based.

tubulin polymerization in T. brucei cells, sequence (P04106 whole entry): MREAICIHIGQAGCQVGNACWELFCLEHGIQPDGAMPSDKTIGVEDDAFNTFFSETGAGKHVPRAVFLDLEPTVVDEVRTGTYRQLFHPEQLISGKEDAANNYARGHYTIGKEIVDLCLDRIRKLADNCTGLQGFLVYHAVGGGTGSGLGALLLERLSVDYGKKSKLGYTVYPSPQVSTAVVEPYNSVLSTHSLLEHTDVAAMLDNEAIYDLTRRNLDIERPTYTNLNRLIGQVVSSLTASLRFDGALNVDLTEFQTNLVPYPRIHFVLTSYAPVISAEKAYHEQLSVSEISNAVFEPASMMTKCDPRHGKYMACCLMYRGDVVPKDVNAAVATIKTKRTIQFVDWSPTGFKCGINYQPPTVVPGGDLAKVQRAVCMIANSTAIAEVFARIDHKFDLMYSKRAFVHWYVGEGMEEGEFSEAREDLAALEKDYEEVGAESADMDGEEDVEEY
tubulin polymerization in T. brucei cells, sequence (P04107 whole entry): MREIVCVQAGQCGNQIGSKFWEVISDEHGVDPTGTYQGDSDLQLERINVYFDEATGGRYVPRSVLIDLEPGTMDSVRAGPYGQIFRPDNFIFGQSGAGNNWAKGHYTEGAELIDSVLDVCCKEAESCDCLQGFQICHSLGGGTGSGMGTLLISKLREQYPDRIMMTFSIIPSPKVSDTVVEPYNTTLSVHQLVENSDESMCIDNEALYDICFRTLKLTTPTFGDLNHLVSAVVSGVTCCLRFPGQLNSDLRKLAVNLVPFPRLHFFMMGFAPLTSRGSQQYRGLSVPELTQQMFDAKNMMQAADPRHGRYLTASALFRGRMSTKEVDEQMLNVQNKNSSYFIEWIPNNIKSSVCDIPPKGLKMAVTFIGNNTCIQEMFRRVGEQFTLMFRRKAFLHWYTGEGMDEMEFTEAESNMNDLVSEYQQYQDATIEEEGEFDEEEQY

As for `CN(c1ccc(NC(=O)c2ccc(C#N)cc2)cc1OCc1ccc(C(F)(F)F)cc1)S(=O)(=O)Cc1ccccc1` [Compound 15, 4-cyano-N-(4-(N-methyl-1-phenylmethylsulfonamido)-3-((4-(trifluoromethyl)benzyl)oxy)phenyl)benzamide], the “amount of polymerized tubulin in T. brucei cells” value in experiment [1] is recorded as “decreased the amount of polymerized tubulin in a dose-dependent manner; also recorded: level of polymerized tubulin is significantly decreased”.

Regarding `CN(c1ccc(NC(=O)c2cc(C(F)(F)F)cc(C(F)(F)F)c2)cc1OCc1ccc(C(F)(F)F)cc1)S(=O)(=O)Cc1ccccc1` [Compound 11, N-(4-(N-methyl-1-phenylmethylsulfonamido)-3-((4-(trifluoromethyl)benzyl)oxy)phenyl)-3,5-bis(trifluor omethyl)benzamide], the IC50 in experiment [2] was less than 5 µM.
